{"source": "patent US11268069B2", "about": "“Reprogramming methods and cell culture platforms” (Fate Therapeutics, Inc., priority 2014, dated 2022)", "tested_on": "hiPSC clone FTi111", "assay": "Thaw of hiPSC clone FTi111 into various culture environments", "type": "cell-based, human", "conditions": "conventional culture with feeder cells"}
{"smiles": "O=C(NCc1ccccc1)c1csc(Nc2ccncn2)n1", "note": "[Thiazovivin]", "values": [{"measurement": "recovery of hiPSC colonies post thaw", "value": "only recovered in the presence of Thiazovivin"}]}
